Where “and” joins values, the source holds several entries; their conditions need not be identical. Identical values can stand only once. Like-named read-outs stand apart in the source and are kept apart here.

One data set concerns Vibrio fischeri bacteria. The data set is described as follows: Vibrio fischeri toxicity assay (Microtox, decay of bioluminescence). The class given is cell-based. On the procedure: The toxicities were determined by exposing Vibrio fischeri marine bacteria to aqueous solutions of ILs in differing concentrations. These bacteria have successfully been used for IL toxicity assessments in a myriad of studies. A recent comparison was performed between V. fischeri and three other standardized toxicity assays utilizing aquatic organisms, namely Daphnia magna (a fresh water crustacean), Selenastrum capricomutum (a freshwater algae) and Phaeodactylum tricomutum (a seawater algae).
The toxicity measurements were performed from an ecotoxicological point of view, since ILs are potentially hazardous for the environment and particularly for organisms in aquatic environments. Therefore, V. fischeri marine bacteria were utilized in these measurements. EC50 values were determined for seven water-soluble surface-active ILs. The ILs in this study included Ch-, GND-, TMG-based ILs with straight and branched (iso and neo forms) fatty acid chains, namely isostearates, decanotes and neodecanoates. As a reference, the toxicities of the sodium salts of these carboxylates were measured in order to obtain information on the effect of the cation on the toxicities of the ILs.
The toxicities of the ILs were defined by measuring their EC50 values using V. fischeri bacteria and Microtox luminometer/thermostate apparatus (Modern Water, USA). The response measured in this assay is the decay of bioluminescence produced by the bacteria. In short, the bioluminescence was measured before the exposure on the potentially toxic compound to determine the baseline luminescence. Consequently, the bacteria were exposed on minimum four differing toxicant concentrations in 2% (w/v) NaCl solution and the decay in the luminescence was recorded. Based on the concentration-dependent decay the EC50 value was defined. The toxicities were defined at set time intervals of 5 and 15 minutes. Two independent measurements were performed for each IL as duplicates.

The nature of data set [1]: Critical micelle concentration by optical pendant drop method (surface tension). Particulars: in water, superscript L logarithmic fitting, S sigmoidal fitting. It counts as physicochemical.
Excerpt: The surface-active molecules (surfactants) dissolve in aqueous solutions as monomers to certain concentration threshold, after which they start to build up into differing aggregates. This concentration threshold is called critical micellar concentration (CMC). However, for many surfactants the CMC is moreover a concentration range, not a specific concentration point, and the width of the range depends greatly on the structure of the compound. […] The optical pendant drop method using a contact angle meter (CAM 200, KSV Instruments, Espoo, Finland) was used for determining the CMCs. In short, a series of differing IL concentrations in water solution was investigated. A pendant-drop of a constant height was formed and the surface tension of the drop was determined based on the drop curvature by using a fitting method according to Young-Laplace equation. The surface tension was determined based on the curvature and plotted as a function of the IL concentration. The surface tension of the drop decreases as a function of increasing surfactant concentration because the singly dispersed IL molecules diffuse and orientate at the air-water interface and therefore reduce the surface tension. When the concentration reaches the CMC, the singly dispersed molecules form aggregates and no additional molecules diffuse to the surface of the drop. Therefore no change in surface tension is observed. The CMCs were determined based on the intersection point of two trend lines fitted based on the data. The surface tension was either plotted as a function of IL concentration or logarithm of the concentration and either sigmoidal or logarithmic fit, respectively, was used. The choice of method was dependent on which method provided the best fit.
Data set [2] can be described thus: Differential scanning calorimetry of IL/DPPC liposome mixtures (main phase transition). The class given is physicochemical. The following applies: for Loss of transition (concentration range within which the phase transition was no longer detected): DPPC liposomes 0.4 mM lipid, DSC heating scans. On the procedure:
The median effective concentrations (EC50) were determined for each IL. Since the toxic effect was thought to be caused by permeation of these surface-active molecules into the cell wall of the bacteria, related interactions of ILs with biomimetic liposomes were investigated utilizing differential scanning calorimetry (DSC). In DSC experiments, dipalmitoyl phosphatidylcholine (DPPC) liposomes were used as biomimicking membranes and the change in the main phase transition temperature (Tm) of the DPPC bilayer was followed, as a function of the IL concentrations. Such measurements could potentially offer more information on how the aforementioned ILs interact with the lipid bilayers. Lastly, the critical micelle concentrations (CMC) were defined for the ILs. Based on the CMCs, it can be defined if the ILs are dissolved as singly dispersed molecules or form a dispersion of spherical micelles, or other self-assembled structures (aggregates). Therefore, it can be determined if the interactions with the bacteria or liposomes take place between IL aggregates or singly dispersed IL molecules.
The DSC experiments were performed in order to find out the IL concentrations that induce the drift in the DPPC bilayer phase transition temperature. FIG. 3 illustrates the representative endotherms, which were recorded during the second heating scans. Since the heating and the cooling scans were performed three times, the second heating endotherm was selected as the representative one. […] If the baseline variations observed during the first heating scans were not observed on the following two scans and with other concentrations of the same ILs, they were regarded as artefacts. […] Cooling scans (not shown) were recorded in order to follow the stability of the system, however, no further analysis of the cooling scans was performed. Such heating and cooling scans are standard in DSC experiments.
The DSC results are discussed in more detail in the following text for each IL carboxylate group. Instead of referring to the peak areas, which define the energy taken by the transition (cal/° C./mol), corresponding peak heights are referred to in the text, since the relative changes in the peak heights are more easily observed by visual inspection.
A stock solution of DPPC was prepared by dissolving DPPC in chloroform. Required amount of the stock solution was transferred into a glass test tube and the chloroform was evaporated under airflow in order to form a thin film of DPPC on the walls of the tube. The air-dried lipid film was held under vacuum desiccator at least for 2 h to remove the residual solvent. The lipid was dispersed into water to obtain a 4.0 mM liposome stock. The dispersion was incubated in an ultrasonication water bath for 30 min at 60° C. facilitating the formation of multilamellar liposomes.
DSC was utilized in observing the changes induced by the ILs in the organization of the lipid bilayers. Here DPPC was used because the Tm of the bilayer is well recognized—approximately 41.3° C. […] There are two additional transitions observed for DPPC aqueous solutions; the subtransition at 21° C. and the pretransition at 36° C.

For data set [3] the following is noted: DPPC liposomes, earlier DSC investigation; cited from earlier work.
Setting [4] is: Vibrio fischeri, 5 min incubation, 2% (w/v) NaCl solution, read-out: EC50 5min.
[5] abbreviates: Vibrio fischeri, 15 min incubation, 2% (w/v) NaCl solution, read-out: EC50 15min.
[6] abbreviates: Aliivibrio fischeri, 5 min, Vibrio fischeri, 5 min incubation, 2% (w/v) NaCl solution, read-out: EC50 5min.
The mark [7] stands for this setting: Aliivibrio fischeri, 0.25 h, Vibrio fischeri, 15 min incubation, 2% (w/v) NaCl solution, read-out: EC50 15min.

Turning to “1,1,3,3-tetramethylguanidinium neodecanoate [TMG Neodecanoate]”, the EC50 with Vibrio fischeri bacteria (setting [4]) worked out at 700 ± 70 µM; with Vibrio fischeri bacteria (setting [5]) it was 650 ± 70 µM. Also, in data set [1], the “CMC (critical micelle concentration)” value is 261 ± 11^L mM.
On to `CCCCCCCCCC(=O)[O-].[Na+]` [Na decanoate, sodium decanoate, reference compound], for which the “Tm of DPPC bilayer” value in data set [2] (50 mM IL, 0.4 mM DPPC) was “above 35 °C”. In addition, the EC50 with Vibrio fischeri bacteria (setting [6]) and in the data set on Vibrio fischeri bacteria (setting [7]) was 130 ± 20 µM each time. The “CMC (critical micelle concentration)” value in data set [1] is 22±3 mM and 22 ± 3^L mM.
Consider choline neodecanoate [Ch Neodecanoate], for which the “highest concentration at which the transition peak was still observed” value in data set [2] (0.4 mM DPPC, no higher concentrations measured) is 60 mM. Besides, the EC50 in the data set with Vibrio fischeri bacteria (setting [4]) worked out at 560 ± 60 µM; with Vibrio fischeri bacteria (setting [5]), 520 ± 80 µM. In addition, the “CMC (critical micelle concentration)” value in data set [1] was 319 ± 13^L mM.
On to `CC(C)CCCCCCCCCCCCCCC(=O)[O-].[Na+]` [Na Isostearate, sodium isostearate, reference compound], for which, in data set [2], the “Loss of transition (concentration range within which the phase transition was no longer detected)” value lay within 0.001 to 0.01 mM. Further, the results for the EC50 in the data set with Vibrio fischeri bacteria (setting [6]) and with Vibrio fischeri bacteria (setting [7]) were 110 ± 10 µM and 81 ± 4 µM, respectively. Also, the “CMC (critical micelle concentration)” value in data set [1] is recorded as 0.72 ± 0.06^L mM.
With `CCCCCCCCC(=O)[O-].C[N+](C)(C)CCO` [Ch nonanoate], the “highest concentration at which a peak for the Tm was still observed” value in data set [3] was 50 mM.
Consider choline decanoate [Ch Decanoate], for which the “Loss of transition (concentration range within which the phase transition was no longer detected)” value in data set [2] is 2.0 to 5.0 mM. Besides, the “concentrations at which the ILs affected the liposomes” value in data set [2] (DPPC liposomes 0.4 mM, DSC) lay within 0.5 to 5 mM. The EC50 in the data set with Vibrio fischeri bacteria (setting [4]) and in the data set with Vibrio fischeri bacteria (setting [5]) was 100 ± 20 µM each time.
In the case of “guanidinium neodecanoate [GND Neodecanoate]”, the “Loss of transition (concentration range within which the phase transition was no longer detected)” value in data set [2] was 15.0 to 25.0 mM. Further, the values for the EC50 in the data set with Vibrio fischeri bacteria (setting [4]) and in the data set with Vibrio fischeri bacteria (setting [5]) were 730 ± 90 µM and 690 ± 70 µM, respectively. Moreover, the “CMC (critical micelle concentration)” value in data set [1] is 118 ± 2^L mM.
The corresponding values for “1,1,3,3-Tetramethylguanidinium isostearate [TMG Isostearate]” are 0.5 to 1.0 mM, 94 ± 1 µM, 62 ± 5 µM and 0.30 ± 0.04^S mM.
The corresponding values for “Guanidinium isostearate [GND Isostearate]” are 0.5 to 1.0 mM, 98 ± 2 µM, 66 ± 5 µM and 0.31 ± 0.08^S mM.
In the case of `CC(C)(C)CCCCCC(=O)[O-].[Na+]` [Na Neodecanoate, sodium neodecanoate, reference compound], the “Loss of transition (concentration range within which the phase transition was no longer detected)” value in data set [2] was 40 to 60 mM. Further, the EC50 amounted to 500 ± 20 µM in the data set on Vibrio fischeri bacteria (Aliivibrio fischeri, 5 min, read-out: EC50 5min) and 473 ± 6 µM in the data set on Vibrio fischeri bacteria (Aliivibrio fischeri, 0.25 h, read-out: EC50 15min). For the same molecule, the “CMC (critical micelle concentration)” value in data set [1] was 422 ± 38^L mM.
Consider Choline isostearate [Ch Isostearate], for which the “Loss of transition (concentration range within which the phase transition was no longer detected)” value in data set [2] was in the range of 0.5 to 1.0 mM. For the same molecule, the EC50 worked out at 130 ± 20 µM in the data set with Vibrio fischeri bacteria (setting [4]) and 74 ± 5 µM with Vibrio fischeri bacteria (setting [5]). The “CMC (critical micelle concentration)” value in data set [1] is 0.50 ± 0.06^L mM; in data set [1] (listed as Ch isostearate), about 0.5 mM.

The record behind these values is patent US11697772B2, “Hydrotropic composition and its uses” (KEMIRA OYJ, priority 2017, dated 2023).
